Where “and” joins values, the source holds several entries; their conditions need not be identical. Equal entries are not always repeated.
Tests used:
[1] = molecular target: Human M3 receptor (Homo sapiens, UniProt P20309); settings: read-out: M3 binding affinity
[2] = molecular target: Human β2 adrenoceptor (Homo sapiens, UniProt P07550); settings: read-out: B2 binding affinity
Chain of Human β2 adrenoceptor (P07550 whole entry): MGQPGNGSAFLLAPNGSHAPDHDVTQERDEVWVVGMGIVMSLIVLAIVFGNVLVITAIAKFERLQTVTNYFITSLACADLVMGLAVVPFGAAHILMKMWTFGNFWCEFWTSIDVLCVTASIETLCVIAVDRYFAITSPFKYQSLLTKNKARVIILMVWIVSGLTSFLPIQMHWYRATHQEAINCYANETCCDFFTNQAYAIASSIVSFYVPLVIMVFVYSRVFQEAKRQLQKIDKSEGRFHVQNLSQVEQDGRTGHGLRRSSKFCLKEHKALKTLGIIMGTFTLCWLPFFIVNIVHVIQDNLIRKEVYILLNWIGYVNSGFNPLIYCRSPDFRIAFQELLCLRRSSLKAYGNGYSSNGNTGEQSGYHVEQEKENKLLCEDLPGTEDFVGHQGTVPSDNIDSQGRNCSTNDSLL

Chain of Human M3 receptor (P20309 whole entry): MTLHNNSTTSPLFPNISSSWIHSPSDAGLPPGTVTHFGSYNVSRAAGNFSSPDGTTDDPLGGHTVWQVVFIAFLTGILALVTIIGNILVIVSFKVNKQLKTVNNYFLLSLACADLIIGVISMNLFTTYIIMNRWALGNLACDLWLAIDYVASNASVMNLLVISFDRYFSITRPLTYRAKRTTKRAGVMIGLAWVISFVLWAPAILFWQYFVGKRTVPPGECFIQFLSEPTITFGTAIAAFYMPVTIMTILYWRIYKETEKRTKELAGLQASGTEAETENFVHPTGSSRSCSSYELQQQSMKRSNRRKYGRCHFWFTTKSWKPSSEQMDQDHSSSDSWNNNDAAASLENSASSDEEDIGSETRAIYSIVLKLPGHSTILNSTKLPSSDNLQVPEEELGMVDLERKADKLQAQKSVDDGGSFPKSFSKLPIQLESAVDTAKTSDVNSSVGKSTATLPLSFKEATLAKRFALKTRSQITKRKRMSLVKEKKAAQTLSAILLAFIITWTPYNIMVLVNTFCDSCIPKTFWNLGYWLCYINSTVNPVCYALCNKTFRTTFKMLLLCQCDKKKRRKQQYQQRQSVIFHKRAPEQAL

Row | Structure (SMILES) | IC50 [1] | IC50 [2]
1 | O=C(COc1cccc([C@](O)(C(=O)OCC2CCN(Cc3ccccc3)CC2)c2ccccc2)c1)NCCCNC(=O)c1ccc(CCNC[C@H](O)c2ccc(O)c3[nH]c(=O)ccc23)cc1 [Compound 85, (1-benzylpiperidin-4-yl)methyl (S)-2-hydroxy-2-(3-(2-((3-(4-(2-(((R)-2-hydroxy-2-(8-hydroxy-2-oxo-1,2-dihydroquinolin-5-yl)ethyl)amino)ethyl)benzamido)propyl)amino)-2-oxoethoxy)phenyl)-2-phenylacetate] | 0.3 to 3 nM | < 0.3 nM
2 | COc1cc(C(=O)N[C@H]2C[C@H](NC(=O)COc3cccc([C@](O)(C(=O)OCC4CCN(Cc5ccccc5)CC4)c4ccccc4)c3)C2)ccc1CNC[C@H](O)c1ccc(O)c2[nH]c(=O)ccc12 [Compound 131, (S)-(1-benzylpiperidin-4-yl)methyl 2-hydroxy-2-(3-(2-(((1R,3S)-3-(4-((((R)-2-hydroxy-2-(8-hydroxy-2-oxo-1,2-dihydroquinolin-5-yl)ethyl)amino)methyl)-3-methoxybenzamido)cyclobutyl)amino)-2-oxoethoxy)phenyl)-2-phenylacetate] | 0.3 to 3 nM | < 0.3 nM
3 | O=C(COc1cccc([C@](O)(C(=O)OCC2CCN(Cc3ccccc3)CC2)c2ccccc2)c1)N[C@H]1C[C@H](NC(=O)c2ccc(CNC[C@H](O)c3ccc(O)c4[nH]c(=O)ccc34)cc2F)C1 [Compound 128, (S)-(1-benzylpiperidin-4-yl)methyl 2-(3-(2-(((1R,3S)-3-(2-fluoro-4-((((R)-2-hydroxy-2-(8-hydroxy-2-oxo-1,2-dihydroquinolin-5-yl)ethyl)amino)methyl)benzamido)cyclobutyl)amino)-2-oxoethoxy)phenyl)-2-hydroxy-2-phenylacetate] | 0.3 to 3 nM | < 0.3 nM
4 | COc1cc(C(=O)N[C@H]2C[C@H](NC(=O)COc3cccc([C@](O)(C(=O)OCC4CCN(Cc5ccccc5)CC4)c4ccccc4)c3)C2)c(Cl)cc1CNC[C@H](O)c1ccc(O)c2[nH]c(=O)ccc12 [Compound 137, (1-benzylpiperidin-4-yl)methyl (S)-2-(3-(2-(((1R,3S)-3-(2-chloro-4-((((R)-2-hydroxy-2-(8-hydroxy-2-oxo-1,2-dihydroquinolin-5-yl)ethyl)amino)methyl)-5-methoxybenzamido)cyclobutyl)amino)-2-oxoethoxy)phenyl)-2-hydroxy-2-phenylacetate] | 0.3 to 3 nM | < 0.3 nM
5 | COc1cc(NC(=O)COc2cccc([C@](O)(C(=O)OCC3CCN(Cc4ccccc4)CC3)c3ccccc3)c2)c(F)cc1CNC[C@H](O)c1ccc(O)c2[nH]c(=O)ccc12 [Compound 42B, (1-benzylpiperidin-4-yl)methyl (S)-2-(3-(2-((2-fluoro-4-((((R)-2-hydroxy-2-(8-hydroxy-2-oxo-1,2-dihydroquinolin-5-yl)ethyl)amino)methyl)-5-methoxyphenyl)amino)-2-oxoethoxy)phenyl)-2-hydroxy-2-phenylacetate] | < 0.3 nM and 0.3 to 3 nM | < 0.3 nM
6 | O=C(OCC1CCN(Cc2ccccc2)CC1)C(O)(c1cccc(F)c1)c1cccc(OCCCCCNC[C@H](O)c2ccc(O)c3[nH]c(=O)ccc23)c1 (stereo partly drawn) [Compound 4, (1-benzylpiperidin-4-yl)methyl 2-(3-fluorophenyl)-2-hydroxy-2-(3-((5-(((R)-2-hydroxy-2-(8-hydroxy-2-oxo-1,2-dihydroquinolin-5-yl)ethyl)amino)pentyl)oxy)phenyl)acetate] | 0.3 to 3 nM | < 0.3 nM
7 | COc1cc(C(=O)NCCNC(=O)c2ccc(COc3cccc([C@](O)(C(=O)OCC4CCN(Cc5ccccc5)CC4)c4ccccc4)c3)cc2)ccc1CNC[C@H](O)c1ccc(O)c2[nH]c(=O)ccc12 [Compound 126, (1-benzylpiperidin-4-yl)methyl (S)-2-hydroxy-2-(3-((4-((2-(4-((((R)-2-hydroxy-2-(8-hydroxy-2-oxo-1,2-dihydroquinolin-5-yl)ethyl)amino)methyl)-3-methoxybenzamido)ethyl)carbamoyl)benzyl)oxy)phenyl)-2-phenylacetate] | 0.3 to 3 nM | 0.3 to 3 nM

— patent US9579314B2 (priority 2015, dated 2017)
